# ChEMBL document CHEMBL4431390, “Dual action Smac mimetics-zinc chelators as pro-apoptotic antitumoral agents” (Bioorg Med Chem Lett, 2016)
# Calls of active or inactive are those of the source. The calls are words filed in the database; no cut-off is given here.
# Legend:
# [1] = Metal chelating activity assessed as compound-Zn2+ complex formation; assay type: functional
# [2] = molecular target: T1, E3 ubiquitin-protein ligase XIAP (Homo sapiens, UniProt P98170); assay: Displacement of FITC-Smac from human recombinant His-tagged XIAP BIR3 domain (241 to 356 residues) expressed in Escherichia coli BL21(DE3) cells after 3 hrs by fluorescence polarization assay
# T1 sequence (P98170 whole entry, the tested form may be a part): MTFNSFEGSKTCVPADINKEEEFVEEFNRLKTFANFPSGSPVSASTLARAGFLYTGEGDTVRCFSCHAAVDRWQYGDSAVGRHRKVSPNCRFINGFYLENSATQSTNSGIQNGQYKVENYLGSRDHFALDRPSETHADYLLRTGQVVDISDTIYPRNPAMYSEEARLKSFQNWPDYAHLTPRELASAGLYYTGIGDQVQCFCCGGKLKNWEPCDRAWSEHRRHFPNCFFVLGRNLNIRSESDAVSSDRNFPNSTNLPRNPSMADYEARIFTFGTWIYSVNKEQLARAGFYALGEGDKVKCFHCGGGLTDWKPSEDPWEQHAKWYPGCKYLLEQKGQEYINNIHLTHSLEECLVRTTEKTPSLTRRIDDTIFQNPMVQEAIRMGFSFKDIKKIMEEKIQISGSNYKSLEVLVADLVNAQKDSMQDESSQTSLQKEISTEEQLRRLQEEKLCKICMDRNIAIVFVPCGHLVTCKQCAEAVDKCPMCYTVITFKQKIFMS
# [3] = molecular target: T1, E3 ubiquitin-protein ligase XIAP; assay: Binding affinity to XIAP BIR3 domain in Smac mimetic-sensitive human MDA-MB-231 cells assessed as increase in cellular IAP1 degradation at 5 uM after 24 hrs by Western blot analysis; assay type: cell-based
# [4] = molecular target: T1, E3 ubiquitin-protein ligase XIAP; assay: Binding affinity to XIAP BIR3 domain in Smac mimetic-sensitive human MDA-MB-231 cells assessed as increase in cleaved caspase-3 expression at 5 uM after 24 hrs by Western blot analysis; assay type: cell-based
# [5] = molecular target: T1, E3 ubiquitin-protein ligase XIAP; assay: Binding affinity to XIAP BIR3 domain in Smac mimetic-sensitive human MDA-MB-231 cells assessed as increase in cleaved PARP expression at 5 uM after 24 hrs by Western blot analysis; assay type: cell-based
# [6] = molecular target: T1, E3 ubiquitin-protein ligase XIAP; assay: Binding affinity to XIAP BIR3 domain in Smac mimetic-resistant human BT549 cells assessed as increase in cellular IAP1 degradation at 5 uM after 24 hrs by Western blot analysis
# [7] = molecular target: T1, E3 ubiquitin-protein ligase XIAP; assay: Binding affinity to XIAP BIR3 domain in Smac mimetic-resistant human MDA-MB-453 cells assessed as increase in cellular IAP1 degradation at 5 uM after 24 hrs by Western blot analysis; assay type: cell-based
# [8] = molecular target: T1, E3 ubiquitin-protein ligase XIAP; assay: Binding affinity to XIAP BIR3 domain in Smac mimetic-resistant human MDA-MB-453 cells assessed as increase in cleaved caspase-3 expression at 5 uM after 24 hrs by Western blot analysis; assay type: cell-based
# [9] = molecular target: T1, E3 ubiquitin-protein ligase XIAP; assay: Binding affinity to XIAP BIR3 domain in Smac mimetic-resistant human MDA-MB-453 cells assessed as increase in cleaved PARP expression at 5 uM after 24 hrs by Western blot analysis; assay type: cell-based
# [10] = Metal chelating activity assessed as compound-Zn2+ complex formation at 50 uM after 15 mins by spectrofluorimetric analysis; assay type: functional
# MDA-MB-231 [11] = assay: Cytotoxicity against Smac mimetic-sensitive human MDA-MB-231 cells assessed as growth inhibition after 24 hrs by CellTiter-Glo assay; assay type: functional, cell-based; conditions: MDA-MB-231, 24 h
# BT-549 [12] = assay: Cytotoxicity against Smac mimetic-resistant human BT549 cells assessed as growth inhibition after 24 hrs by CellTiter-Glo assay; assay type: functional, cell-based; conditions: BT-549, 24 h
# MDA-MB-453 [13] = assay: Cytotoxicity against Smac mimetic-resistant human MDA-MB-453 cells assessed as growth inhibition after 24 hrs by CellTiter-Glo assay; assay type: functional, cell-based; conditions: MDA-MB-453, 24 h
# MDA-MB-231 [14] = assay: Effect on XIAP level in Smac mimetic-sensitive human MDA-MB-231 cells at 5 uM after 24 hrs by Western blot analysis; assay type: functional, cell-based
# BT-549 [15] = assay: Effect on XIAP level in Smac mimetic-resistant human BT549 cells at 5 uM after 24 hrs by Western blot analysis; assay type: functional, cell-based
# MDA-MB-453 [16] = assay: Effect on XIAP level in Smac mimetic-resistant human MDA-MB-453 cells at 5 uM after 24 hrs by Western blot analysis; assay type: functional, cell-based
# [17] = molecular target: T1, E3 ubiquitin-protein ligase XIAP; assay: Binding affinity to XIAP BIR3 domain in Smac mimetic-resistant human BT549 cells assessed as increase in cleaved caspase-3 expression at 5 uM after 24 hrs by Western blot analysis
# [18] = molecular target: T1, E3 ubiquitin-protein ligase XIAP; assay: Binding affinity to XIAP BIR3 domain in Smac mimetic-resistant human BT549 cells assessed as increase in cleaved PARP expression at 5 uM after 24 hrs by Western blot analysis
SMILES,IC50 [2] [µM],Activity [3],Activity [4],Activity [5],Activity [6],Activity [7],Activity [8],Activity [9],Activity [17],Activity [18],Kd [1] [nM],Activity [10],IC50 (MDA-MB-231 [11]) [µM],IC50 (BT-549 [12]) [µM],IC50 (MDA-MB-453 [13]) [µM],Activity (MDA-MB-231 [14]),Activity (BT-549 [15]),Activity (MDA-MB-453 [16])
c1ccc(CN(CCN(Cc2ccccn2)Cc2ccccn2)Cc2ccccn2)nc1,,,,,,,,,,,3e-07,,,,,,,
C=CCc1cccc(/C=N/NC(=O)[C@@H](NC(=O)[C@@H]2CC[C@@H]3CC[C@H](CCNC(=O)c4ccccc4)[C@H](NC(=O)[C@H](CC)NC)C(=O)N32)c2ccccc2)c1O,1.09,Active,Active,Active,Active,Active,inactive,inactive,,,,,,,,,,
c1ccc(CNCc2ccccn2)nc1,,,,,,,,,,,210,Active,,,,,,
C=CCc1cccc(/C=N/NC(=O)CN2CCN(Cc3ccccc3)CC2)c1O [PAC-1],> 10,inactive,inactive,inactive,,,,,,,,,4.7,14.3,2,inactive,inactive,inactive
CC[C@H](NC)C(=O)N[C@@H]1C(=O)N2[C@@H](CC[C@@H]1CNC(=O)c1ccccc1)CC[C@H]2C(=O)NC(c1ccccc1)c1ccccc1,,Active,Active,Active,Active,Active,inactive,inactive,Active,Active,,,2.3,> 25,> 25,inactive,inactive,inactive

# Further lines, with some results ahead:
IC50 [2] [µM],Activity [3],Activity [4],Activity [5],Activity [6],Activity [7],Activity [8],Activity [9],Activity [17],Activity [18],SMILES,Kd [1] [nM],Activity [10],IC50 (MDA-MB-231 [11]) [µM],IC50 (BT-549 [12]) [µM],IC50 (MDA-MB-453 [13]) [µM],Activity (MDA-MB-231 [14]),Activity (BT-549 [15]),Activity (MDA-MB-453 [16])
> 10,inactive,inactive,inactive,,,,,,,CC[C@H](NC)C(=O)N[C@@H]1C(=O)N2[C@@H](CC[C@@H]1CNC(=O)c1ccccc1)CC[C@H]2C(=O)N[C@@H](C(=O)NCCN(Cc1ccccn1)Cc1ccccn1)c1ccccc1,,,,,,,,
0.37,Active,Active,Active,,Active,inactive,inactive,,,CC[C@H](NC)C(=O)N[C@@H]1C(=O)N2[C@@H](CC[C@@H]1CNC(=O)c1ccccc1)CC[C@H]2C(=O)N[C@H](C(=O)N(Cc1ccccn1)Cc1ccccn1)c1ccccc1,,,,,,,,
> 10,inactive,inactive,inactive,,,,,,,CC[C@H](NC)C(=O)N[C@@H]1C(=O)N2[C@@H](CC[C@@H]1CNC(=O)c1ccccc1)CC[C@H]2C(=O)N[C@@H](C(=O)N(Cc1ccccn1)Cc1ccccn1)c1ccccc1,,,,,,,,
> 10,inactive,inactive,inactive,,,,,,,CC[C@H](NC)C(=O)N[C@@H]1C(=O)N2[C@@H](CC[C@@H]1CNC(=O)c1ccccc1)CC[C@H]2C(=O)N(Cc1ccccn1)Cc1ccccn1,,,,,,,,
0.091,Active,Active,Active,Active,Active,inactive,inactive,Active,Active,CC[C@H](NC)C(=O)N[C@@H]1C(=O)N2[C@@H](CC[C@@H]1CNC(=O)c1ccccc1)CC[C@H]2C(=O)N[C@H](C(=O)NCCN(Cc1ccccn1)Cc1ccccn1)c1ccccc1,,,,,,,,
